Test results: US9248130B2, “Methods and compositions for treating thyroid-related medical conditions with reduced folates” (priority 2009, dated 2016)

Legend:
Type in all cases: in vivo, human
[1] = Hematological response (reticulocytes) in hypothyroid infant patient (case report); conditions: patient Example 1; additional nutritional supplement containing 2 mcg of vitamin B12
Description: Example 1 and Example 2 received different nutritional supplementation with respect to vitamin B12. Although Example 2 did receive the same infant milk formula that Example 1 received, which infant milk formula contained vitamin B12, Example 2 received less of the infant milk formula than Example 1, and Example 2 received in lieu of the infant milk formula more of the breast milk from the hypothyroid […]. Example 1 also received an additional multivitamin nutritional supplement that included 2 mcg of vitamin B12.

[2] = Cerebrospinal folate levels in patient with cerebrospinal folate deficiency (case report); conditions: patient Example 2; folinic acid 5 mg twice per day; within approximately four months; rose from 32 L; preferred range 40-128
Experimental: Example 1 was tested for cerebrospinal folate deficiency approximately four months after Example 2's testing. […] Studies have shown that the earlier the anemias associated with cerebrospinal folate deficiency are addressed, the better the adversely impacted individual can overcome more long-term effects of the associated folate deficiency.
After Example 2's diagnosis, Example 2 was placed on 5-methyltetrahydrofolate in the form of folinic acid (5 mg twice per day).

[3] = Physical, behavioral and social skills of patient with cerebrospinal folate deficiency (case report); conditions: patient Example 2; after treatment

| Compound | hematological response: reticulocytes [1] | cerebrospinal folate levels [2] | physical, behavioral and social skills [3] |
| --- | --- | --- | --- |
| cobalamin [vitamin B12] | moving from below normal to normal | – | – |
| Nc1nc2c(c(=O)[nH]1)N(C=O)C(CNc1ccc(C(=O)N[C@@H](CCC(=O)O)C(=O)O)cc1)CN2 (stereo partly drawn) [folinic acid, 6(R,S)-5-formyltetrahydrofolate] | – | approximately 88 | showed improvement |
